Active and inactive are the calls of the source. No cut-off for these calls is given here.
Tests used:
[1] = AUClast in BALB/c mouse at 10 mg/kg, iv measured for 24 hrs post dose by LC-MS/MS analysis; assay type: ADME, organism-based; parameters: dose 10 mg/kg, route intravenous, time 0 - last; settings: in vivo
[2] = target: 3',5'-cyclic-AMP phosphodiesterase 4D (Homo sapiens, UniProt Q08499); assay: Inhibition of PDE4D2 (unknown origin) using cAMP as substrate preincubated with enzyme for 15 mins followed by substrate addition and incubated for 1 hr by PDELight HTS cAMP phosphodiesterase Kit based luminometry
Homo sapiens [3] = organism: Homo sapiens; assay: Selectivity index, ratio of IC50 for PDE4D2 (unknown origin) to IC50 for recombinant His-tagged human PDE4B expressed in sf9 cells using cAMP as substrate by PDELight HTS cAMP phosphodiesterase Kit based luminometry
PDE4C = PDE4C (Homo sapiens, UniProt Q08493); assay: Inhibition of PDE4C (unknown origin) at 100 uM using cAMP as substrate preincubated with enzyme for 15 mins followed by substrate addition and incubated for 1 hr by PDELight HTS cAMP phosphodiesterase Kit based luminometry relative to control; settings: probe cAMP
Chain of PDE4C (Q08493 whole entry): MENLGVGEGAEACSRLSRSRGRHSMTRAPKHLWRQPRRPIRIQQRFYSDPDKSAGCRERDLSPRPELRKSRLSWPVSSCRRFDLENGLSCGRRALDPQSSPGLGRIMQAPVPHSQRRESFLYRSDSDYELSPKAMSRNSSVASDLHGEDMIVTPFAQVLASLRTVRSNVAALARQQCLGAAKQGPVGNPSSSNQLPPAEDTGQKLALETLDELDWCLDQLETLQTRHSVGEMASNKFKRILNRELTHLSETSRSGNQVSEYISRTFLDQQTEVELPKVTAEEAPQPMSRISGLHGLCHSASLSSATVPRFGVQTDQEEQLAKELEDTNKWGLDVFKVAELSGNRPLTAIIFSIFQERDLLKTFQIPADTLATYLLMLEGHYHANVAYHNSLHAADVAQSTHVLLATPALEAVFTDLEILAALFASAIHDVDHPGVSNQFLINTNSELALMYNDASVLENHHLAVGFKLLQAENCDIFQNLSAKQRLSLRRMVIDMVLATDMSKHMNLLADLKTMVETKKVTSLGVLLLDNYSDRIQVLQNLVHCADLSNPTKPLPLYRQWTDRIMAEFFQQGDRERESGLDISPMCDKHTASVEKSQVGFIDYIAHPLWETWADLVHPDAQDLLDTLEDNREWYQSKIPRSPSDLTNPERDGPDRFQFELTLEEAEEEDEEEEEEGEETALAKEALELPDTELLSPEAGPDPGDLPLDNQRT

Homo sapiens [4] = organism: Homo sapiens; assay: Selectivity for recombinant His-tagged human PDE4B over PDE4C (unknown origin)
RAW264.7 = assay: Antiinflammatory activity in mouse RAW264.7 cells assessed as inhibition of LPS-induced iNOS expression preincubated for 30 mins followed by LPS stimulation and incubated for 10 hrs by immunoblotting analysis; assay type: functional, cell-based
[5] = target: Dual specificity calcium/calmodulin-dependent 3',5'-cyclic nucleotide phosphodiesterase 1A (Homo sapiens) (UniProt P54750); assay: Inhibition of recombinant N-terminal GST-tagged full-length human PDE1A1 expressed in Sf9 cells using FAM-cAMP as substrate at 10 uM incubated for 60 mins by fluorescence plate reader analysis
Chain of Dual specificity calcium/calmodulin-dependent 3',5'-cyclic nucleotide phosphodiesterase 1A (Homo sapiens) (P54750 whole entry): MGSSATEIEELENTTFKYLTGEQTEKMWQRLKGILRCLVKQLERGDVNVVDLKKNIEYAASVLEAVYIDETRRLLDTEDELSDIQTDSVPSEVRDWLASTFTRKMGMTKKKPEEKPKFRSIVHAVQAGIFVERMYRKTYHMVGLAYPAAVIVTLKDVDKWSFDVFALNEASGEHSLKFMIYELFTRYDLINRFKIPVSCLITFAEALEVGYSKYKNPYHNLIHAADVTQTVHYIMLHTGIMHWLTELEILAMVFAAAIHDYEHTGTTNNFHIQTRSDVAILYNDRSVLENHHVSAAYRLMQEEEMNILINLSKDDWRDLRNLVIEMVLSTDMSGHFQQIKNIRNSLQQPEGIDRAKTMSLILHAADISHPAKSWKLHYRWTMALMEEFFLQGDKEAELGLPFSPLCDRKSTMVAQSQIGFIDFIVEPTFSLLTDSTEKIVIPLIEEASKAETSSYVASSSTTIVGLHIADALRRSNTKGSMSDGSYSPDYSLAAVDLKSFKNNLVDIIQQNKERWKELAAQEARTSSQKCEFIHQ

[6] = target: Dual specificity calcium/calmodulin-dependent 3',5'-cyclic nucleotide phosphodiesterase 1B (Homo sapiens) (UniProt Q01064); assay: Inhibition of recombinant N-terminal GST tagged full length human PDE1B expressed in Sf9 cells using FAM-cAMP as substrate at 10 uM incubated for 60 mins by fluorescence plate reader analysis
Chain of Dual specificity calcium/calmodulin-dependent 3',5'-cyclic nucleotide phosphodiesterase 1B (Homo sapiens) (Q01064 whole entry): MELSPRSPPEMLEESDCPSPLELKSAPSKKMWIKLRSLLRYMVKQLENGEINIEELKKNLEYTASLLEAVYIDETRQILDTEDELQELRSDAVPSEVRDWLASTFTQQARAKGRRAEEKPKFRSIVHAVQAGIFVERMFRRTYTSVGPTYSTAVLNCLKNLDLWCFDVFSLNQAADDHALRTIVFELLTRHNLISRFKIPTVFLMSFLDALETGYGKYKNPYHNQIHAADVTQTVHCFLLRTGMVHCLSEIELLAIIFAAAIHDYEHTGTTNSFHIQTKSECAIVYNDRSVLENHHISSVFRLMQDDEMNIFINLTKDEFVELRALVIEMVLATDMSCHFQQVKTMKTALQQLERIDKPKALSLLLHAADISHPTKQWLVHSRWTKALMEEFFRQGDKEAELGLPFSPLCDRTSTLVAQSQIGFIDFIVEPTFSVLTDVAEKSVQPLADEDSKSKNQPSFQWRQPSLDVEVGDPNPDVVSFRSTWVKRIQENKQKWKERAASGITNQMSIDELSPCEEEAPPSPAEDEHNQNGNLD

[7] = target: cGMP-inhibited 3',5'-cyclic phosphodiesterase 3B (Homo sapiens) (UniProt Q13370); assay: Inhibition of recombinant N-terminal GST-tagged human PDE3B (592-end aa) expressed in Sf9 cells using FAM-cAMP as substrate at 10 uM incubated for 60 mins by fluorescence plate reader analysis
Chain of cGMP-inhibited 3',5'-cyclic phosphodiesterase 3B (Homo sapiens) (Q13370 whole entry, looked up): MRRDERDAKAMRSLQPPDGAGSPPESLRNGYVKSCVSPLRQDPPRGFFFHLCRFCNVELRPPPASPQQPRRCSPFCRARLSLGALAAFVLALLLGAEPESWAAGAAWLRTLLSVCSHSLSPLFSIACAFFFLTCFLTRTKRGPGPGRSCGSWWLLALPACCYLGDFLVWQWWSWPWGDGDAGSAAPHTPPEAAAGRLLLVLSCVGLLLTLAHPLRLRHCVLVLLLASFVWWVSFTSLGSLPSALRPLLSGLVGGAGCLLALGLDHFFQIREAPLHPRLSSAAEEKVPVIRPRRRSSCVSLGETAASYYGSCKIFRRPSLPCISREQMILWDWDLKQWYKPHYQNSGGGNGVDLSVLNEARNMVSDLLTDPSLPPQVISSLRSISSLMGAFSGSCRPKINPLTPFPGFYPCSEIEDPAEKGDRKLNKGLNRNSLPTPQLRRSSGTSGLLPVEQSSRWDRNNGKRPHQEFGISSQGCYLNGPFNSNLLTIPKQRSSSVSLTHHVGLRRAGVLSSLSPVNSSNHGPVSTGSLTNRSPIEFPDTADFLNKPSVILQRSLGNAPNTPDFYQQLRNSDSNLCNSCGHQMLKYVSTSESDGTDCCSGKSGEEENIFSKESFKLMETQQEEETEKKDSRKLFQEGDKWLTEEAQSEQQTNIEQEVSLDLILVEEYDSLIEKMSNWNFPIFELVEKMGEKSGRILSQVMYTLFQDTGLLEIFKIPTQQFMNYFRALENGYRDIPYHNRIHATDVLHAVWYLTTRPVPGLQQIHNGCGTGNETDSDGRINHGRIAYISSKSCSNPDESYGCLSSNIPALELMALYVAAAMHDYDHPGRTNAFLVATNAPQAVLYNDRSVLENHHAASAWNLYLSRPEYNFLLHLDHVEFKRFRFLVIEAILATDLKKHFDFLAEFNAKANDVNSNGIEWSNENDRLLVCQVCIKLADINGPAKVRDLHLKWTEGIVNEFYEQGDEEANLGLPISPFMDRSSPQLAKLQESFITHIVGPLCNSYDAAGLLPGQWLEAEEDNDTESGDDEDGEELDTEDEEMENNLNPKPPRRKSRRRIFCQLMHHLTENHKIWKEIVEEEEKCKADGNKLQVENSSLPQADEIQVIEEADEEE

[8] = Inhibition of recombinant N-terminal GST-tagged full length human PDE4A1A expressed in Sf9 cells using cAMP as substrate at 10 uM incubated for 60 mins by fluorescence plate reader analysis
[9] = target: 3',5'-cyclic-AMP phosphodiesterase 4A (Homo sapiens) (UniProt P27815); assay: Inhibition of recombinant N-terminal GST tagged human PDE4A4B (2-end aa) expressed in Sf9 cells using FAM-cAMP as substrate at 10 uM incubated for 60 mins by fluorescence plate reader analysis
[10] = target: cGMP-specific 3',5'-cyclic phosphodiesterase (Homo sapiens) (UniProt O76074); assay: Inhibition of recombinant N-terminal GST-tagged full length human PDE5A1 expressed in Sf9 cells using FAM-cGMP as substrate at 10 uM incubated for 60 mins by fluorescence plate reader analysis
[11] = target: 3',5'-cyclic-AMP phosphodiesterase 7B (Homo sapiens) (UniProt Q9NP56); assay: Inhibition of recombinant N-terminal GST tagged and C-terminal His-tagged human PDE7B (109-ens aa) expressed in Sf9 cells using FAM-cAMP as substrate at 10 uM incubated for 60 mins by fluorescence plate reader analysis
Chain of 3',5'-cyclic-AMP phosphodiesterase 7B (Homo sapiens) (Q9NP56 whole entry, the tested form may be a part): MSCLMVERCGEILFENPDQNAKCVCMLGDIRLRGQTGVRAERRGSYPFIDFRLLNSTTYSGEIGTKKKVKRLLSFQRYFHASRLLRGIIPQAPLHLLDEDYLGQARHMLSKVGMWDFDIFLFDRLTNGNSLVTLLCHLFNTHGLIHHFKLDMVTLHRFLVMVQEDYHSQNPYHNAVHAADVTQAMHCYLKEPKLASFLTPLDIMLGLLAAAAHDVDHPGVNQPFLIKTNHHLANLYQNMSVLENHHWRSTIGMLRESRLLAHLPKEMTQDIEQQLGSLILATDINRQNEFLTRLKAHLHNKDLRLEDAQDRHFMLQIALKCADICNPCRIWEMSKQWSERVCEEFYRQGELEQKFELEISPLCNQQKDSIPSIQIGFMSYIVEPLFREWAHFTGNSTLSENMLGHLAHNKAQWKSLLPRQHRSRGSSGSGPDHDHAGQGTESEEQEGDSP

[12] = target: cAMP and cAMP-inhibited cGMP 3',5'-cyclic phosphodiesterase 10A (Homo sapiens) (UniProt Q9Y233); assay: Inhibition of recombinant -N-terminal GST-tagged human PDE10A1 (aa 2-789) expressed in Sf9 cells using FAM-cAMP as substrate at 10 uM incubated for 60 mins by fluorescence plate reader analysis
Chain of cAMP and cAMP-inhibited cGMP 3',5'-cyclic phosphodiesterase 10A (Homo sapiens) (Q9Y233 whole entry, the tested form may be a part): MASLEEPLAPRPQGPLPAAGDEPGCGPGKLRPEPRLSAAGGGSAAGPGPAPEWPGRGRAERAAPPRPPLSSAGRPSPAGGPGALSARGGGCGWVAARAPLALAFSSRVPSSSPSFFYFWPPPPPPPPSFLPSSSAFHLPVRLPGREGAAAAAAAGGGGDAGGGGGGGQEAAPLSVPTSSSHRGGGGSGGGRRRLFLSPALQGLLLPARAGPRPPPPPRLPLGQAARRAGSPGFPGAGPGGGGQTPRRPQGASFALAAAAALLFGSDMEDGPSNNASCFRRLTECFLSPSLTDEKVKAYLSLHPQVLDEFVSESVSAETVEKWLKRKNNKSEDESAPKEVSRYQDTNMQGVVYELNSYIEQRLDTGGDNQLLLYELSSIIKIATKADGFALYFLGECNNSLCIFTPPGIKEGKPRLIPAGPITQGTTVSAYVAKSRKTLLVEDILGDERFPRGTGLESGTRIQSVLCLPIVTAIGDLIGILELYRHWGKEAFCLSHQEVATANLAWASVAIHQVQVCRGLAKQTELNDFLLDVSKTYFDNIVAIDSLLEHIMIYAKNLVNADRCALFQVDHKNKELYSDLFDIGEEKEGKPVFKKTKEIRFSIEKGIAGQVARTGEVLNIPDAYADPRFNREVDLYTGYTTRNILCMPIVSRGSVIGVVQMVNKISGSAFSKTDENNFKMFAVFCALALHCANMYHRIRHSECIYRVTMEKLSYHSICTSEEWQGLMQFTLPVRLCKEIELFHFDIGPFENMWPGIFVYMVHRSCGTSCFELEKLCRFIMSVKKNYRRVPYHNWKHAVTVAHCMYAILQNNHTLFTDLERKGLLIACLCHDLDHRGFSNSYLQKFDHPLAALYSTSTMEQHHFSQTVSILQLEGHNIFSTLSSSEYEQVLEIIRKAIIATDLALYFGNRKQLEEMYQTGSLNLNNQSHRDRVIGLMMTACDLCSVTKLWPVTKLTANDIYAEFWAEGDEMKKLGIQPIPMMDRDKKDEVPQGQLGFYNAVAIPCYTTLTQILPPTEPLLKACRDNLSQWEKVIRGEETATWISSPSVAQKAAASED

[13] = target: cAMP and cAMP-inhibited cGMP 3',5'-cyclic phosphodiesterase 10A (Homo sapiens) (UniProt Q9Y233); assay: Inhibition of recombinant N-terminal GST-tagged full length human PDE10A2 expressed in Sf9 cells using FAM-cAMP as substrate at 10 uM incubated for 60 mins by fluorescence plate reader analysis
[14] = Metabolic stability in rat liver microsomes assessed as compound remaining at 5 uM incubated for 30 mins in presence of air measured after 60 mins by LC-MS/MS analysis; assay type: ADME, Microsome; settings: read-out: Stability
[15] = Tmax in BALB/c mouse at 10 mg/kg, iv measured for 24 hrs post dose by LC-MS/MS analysis; assay type: ADME, organism-based; settings: in vivo
[16] = Clearance in BALB/c mouse at 10 mg/kg, iv measured for 24 hrs post dose by LC-MS/MS analysis; assay type: ADME, organism-based; settings: in vivo
[17] = Half life in BALB/c mouse at 10 mg/kg, iv measured for 24 hrs post dose by LC-MS/MS analysis; assay type: ADME, organism-based; settings: in vivo
Rattus norvegicus [18] = assay: Antiarthritic activity in complete Freund's adjuvant-induced Wistar rat arthritis model assessed as reduction in paw volume at 30 mg/kg, ip administered from 11th day to 20th day by vernier caliper analysis; assay type: functional, organism-based
Rattus norvegicus [19] = assay: Analgesic activity in complete Freund's adjuvant-induced Wistar rat arthritis model assessed as increase in reaction time at 30 mg/kg, ip administered from 11th day 20th day with last dose administered 30 mins prior to test by hot-plate test; assay type: functional, organism-based
Rattus norvegicus [20] = assay: Antiarthritic activity in complete Freund's adjuvant-induced Wistar rat arthritis model assessed as reduction in pannus formation at 30 mg/kg, ip administered from 11th day to 20th day by H&E staining based microscopic analysis; assay type: functional, organism-based
Rattus norvegicus [21] = assay: Antiinflammatory activity in complete Freund's adjuvant-induced Wistar rat arthritis model assessed as reduction in TNFalpha expression in serum at 30 mg/kg, ip administered from 11th day to 20th day by ELISA; assay type: functional, organism-based
Rattus norvegicus [22] = assay: Antiinflammatory activity in complete Freund's adjuvant-induced Wistar rat arthritis model assessed as reduction in IL1beta expression in serum at 30 mg/kg, ip administered from 11th day to 20th day by ELISA; assay type: functional, organism-based
[23] = Cardiotoxicity in zebrafish embryos assessed as heart rate at 1 to 100 uM; assay type: toxicity, Danio rerio
[24] = Hepatotoxicity in zebrafish embryos assessed as liver size at 1 to 100 uM incubated for 7 dpf; assay type: toxicity, Danio rerio; settings: in vivo
[25] = Hepatotoxicity in zebrafish embryos assessed as liver degeneration at 1 to 100 uM incubated for 7 dpf; assay type: toxicity, Danio rerio; settings: in vivo
[26] = Toxicity in zebrafish embryo assessed as change in body shape at 1 to 100 uM; parameters: species or system Danio rerio; settings: in vivo
[27] = Toxicity in zebrafish embryo assessed as effect in tail formation at 1 to 100 uM; parameters: species or system Danio rerio; settings: in vivo
[28] = Toxicity in zebrafish embryo assessed as effect in brain formation at 1 to 100 uM; assay type: tissue-based, Danio rerio; settings: in vivo
[29] = Toxicity in zebrafish embryo assessed as effect in upper jaw formation at 1 to 100 uM; parameters: species or system Danio rerio; settings: in vivo
[30] = Toxicity in zebrafish embryo assessed as effect in liver formation at 1 to 100 uM; parameters: species or system Danio rerio; settings: in vivo
Rattus norvegicus [31] = assay: Antiinflammatory activity in complete Freund's adjuvant-induced Wistar rat arthritis model assessed as reduction in TNFalpha mRNA expression at 30 mg/kg, ip administered from 11th day to 20th day by qPCR analysis; assay type: functional, organism-based

AUC(0-t) at 24 h [1]: 1090 ng·h/mL | IC50 [2]: 10.7 µM | inhibition at 1 h, 100 µM (PDE4C): 20 to 30% | Selectivity ratio (Homo sapiens [4]): > 250 | inhibition [5]: 12% | inhibition [6]: 23% | inhibition [7]: 1% | inhibition [9]: 36% | inhibition [10]: 2% | inhibition [11]: 2% | inhibition [12]: 13% | inhibition [13]: 15% | remaining at 60 min, 5 µM [14]: 42.2% | Tmax [15]: 4.8 min | clearance [16]: 143 mL/min/kg | half-life [17]: 38.4 min
SMILES: C=CCn1cc(-c2nc3ccccc3nc2Cl)c2cc(OC)ccc21
Ratio IC50 (Homo sapiens [3]): 27 | inhibition (RAW264.7): Active | inhibition [8]: 40% | inhibition (Rattus norvegicus [18]): Active | Activity (Rattus norvegicus [19]): Active | inhibition (Rattus norvegicus [20]): Active | inhibition (Rattus norvegicus [21]): Active | inhibition (Rattus norvegicus [22]): Active | Activity [23]: Non-Toxic | Activity [24]: Non-Toxic | Activity [25]: Non-Toxic | Activity [26]: Non-Toxic | Activity [27]: Non-Toxic | Activity [28]: Non-Toxic | Activity [29]: Toxic | Activity [30]: Non-Toxic | inhibition (Rattus norvegicus [31]): Active

Source: ChEMBL document CHEMBL4393686, “InCl3 mediated heteroarylation of indoles and their derivatization via CH activation strategy: Discovery of 2-(1H-indol-3-yl)-quinoxaline derivatives as a new class of PDE4B selective inhibitors for arthritis and/or multiple sclerosis” (Eur J Med Chem, 2019)
